From BindingDB's records for doi:10.1074/jbc.270.11.6056 (Medical Research Council Centre, 1995) come the findings set out here.

The Ki is a dissociation constant, usually derived from enzyme kinetics or from competition with a known ligand. Low values mean a stronger hold on the target, high ones a looser hold on the target.

Where a name gives a salt, the structure may show the parent alone.

For the experiment, the target named is T1, 5-hydroxytryptamine receptor 3A (Mus musculus, UniProt P23979).
T1 sequence (P23979 whole entry): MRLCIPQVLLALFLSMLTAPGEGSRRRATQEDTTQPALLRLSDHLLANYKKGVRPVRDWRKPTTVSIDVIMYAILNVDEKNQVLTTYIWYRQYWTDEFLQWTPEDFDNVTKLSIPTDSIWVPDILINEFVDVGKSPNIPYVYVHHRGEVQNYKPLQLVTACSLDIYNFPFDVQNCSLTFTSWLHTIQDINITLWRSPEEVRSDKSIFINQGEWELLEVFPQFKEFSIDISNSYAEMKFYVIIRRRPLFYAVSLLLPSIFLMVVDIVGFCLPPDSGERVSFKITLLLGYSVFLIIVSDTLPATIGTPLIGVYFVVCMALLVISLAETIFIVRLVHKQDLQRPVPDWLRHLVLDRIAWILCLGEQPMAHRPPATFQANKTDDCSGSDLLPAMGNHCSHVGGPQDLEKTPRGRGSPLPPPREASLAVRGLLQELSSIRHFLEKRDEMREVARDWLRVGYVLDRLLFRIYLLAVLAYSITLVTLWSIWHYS
`CN1C2CCC1CC(OC(=O)c1cc(Cl)cc(Cl)c1)C2` (stereo not drawn) [MDL 72222] registered a Ki of 13 nM.

`Cc1nc[nH]c1CCC(=O)c1cc2ccccc2n1C` [CAS_124006] came in with an inhibition constant (Ki) of 0.21 nM.

In turn, `N=C(N)NC(=N)Nc1cccc(Cl)c1` [1-(3-CHLOROPHENYL)BIGUANIDE HYDROCHLORIDE] had a Ki of 0.94 nM.
